The target in assay [1] is T1, alpha 2B receptor (Homo sapiens, UniProt P18089).
T1 construct: expressed in transfected cells; host or cells: NIH-3T3 cells
T1 sequence (P18089 1-450): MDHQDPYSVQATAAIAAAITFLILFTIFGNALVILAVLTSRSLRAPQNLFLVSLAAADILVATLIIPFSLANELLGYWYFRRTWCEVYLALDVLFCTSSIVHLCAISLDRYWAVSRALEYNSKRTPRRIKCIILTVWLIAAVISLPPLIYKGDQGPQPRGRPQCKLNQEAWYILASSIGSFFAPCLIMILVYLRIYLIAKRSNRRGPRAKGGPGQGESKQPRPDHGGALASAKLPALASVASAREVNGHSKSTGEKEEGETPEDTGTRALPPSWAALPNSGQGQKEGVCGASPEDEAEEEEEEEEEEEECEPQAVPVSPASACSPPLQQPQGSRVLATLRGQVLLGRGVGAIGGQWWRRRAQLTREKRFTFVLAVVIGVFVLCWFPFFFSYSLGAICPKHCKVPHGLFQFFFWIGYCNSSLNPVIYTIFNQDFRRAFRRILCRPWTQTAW
Put plainly: RSAT (Receptor Selection and Amplification Technology) assay, alpha 2B. The assay is classed as cell-based. To be noted: for RSAT (rel eff) Alpha 2B: intrinsic activity: ratio of maximal effect to that of standard full agonist brimonidine. As for the experimental part:
(§1) 76, pp. 308-311 (incorporated herein by reference) and is also described below.
(§2) The RSAT assay measures a receptor-mediated loss of contact inhibition that results in selective proliferation of receptor-containing cells in a mixed population of confluent cells. The increase in cell number is assessed with an appropriate transfected marker gene such as β-galactosidase, the activity of which can be easily measured in a 96-well format. Receptors that activate the G protein, Gq, elicit this response. Alpha 2 receptors, which normally couple to Gi, activate the RSAT response when coexpressed with a hybrid Gq protein that has a Gi receptor recognition domain, called Gq/i5.
(§3) NIH-3T3 cells are plated at a density of 2×10^6 cells in 15 cm dishes and maintained in Dulbecco's modified Eagle's medium supplemented with 10% calf serum. One day later, cells are cotransfected by calcium phosphate precipitation with mammalian expression plasmids encoding p-SV-β-galactosidase (5-10 μg), receptor (1-2 μg) and G protein (1-2 μg). 40 μg salmon sperm DNA may also be included in the transfection mixture. Fresh media is added on the following day and 1-2 days later, cells are harvested and frozen in 50 assay aliquots. Cells are thawed and 100 μl added to 100 μL aliquots of various concentrations of drugs in triplicate in 96-well dishes. Incubations continue 72-96 hr at 37° C. After washing with phosphate-buffered saline, β-galactosidase enzyme activity is determined by adding 200 μL of the chromogenic substrate (consisting of 3.5 mM o-nitrophenyl-β-D-galactopyranoside and 0.5% nonidet P-40 in phosphate buffered saline), incubating overnight at 30° C. and measuring optical density at 420 nm. The absorbance is a measure of enzyme activity, which depends on cell number and reflects a receptor-mediated cell proliferation. The efficacy or intrinsic activity is calculated as a ratio of the maximal effect of the drug to the maximal effect of a standard full agonist for each receptor subtype. Brimonidine, the chemical structure of which is shown below, is used as the standard agonist for the alpha 2B and alpha 2C receptors.

Assay [2] addresses T2, alpha 2C receptor (Homo sapiens, UniProt P18825).
T2 construct: expressed in transfected cells; host or cells: NIH-3T3 cells
T2 sequence (P18825 1-462): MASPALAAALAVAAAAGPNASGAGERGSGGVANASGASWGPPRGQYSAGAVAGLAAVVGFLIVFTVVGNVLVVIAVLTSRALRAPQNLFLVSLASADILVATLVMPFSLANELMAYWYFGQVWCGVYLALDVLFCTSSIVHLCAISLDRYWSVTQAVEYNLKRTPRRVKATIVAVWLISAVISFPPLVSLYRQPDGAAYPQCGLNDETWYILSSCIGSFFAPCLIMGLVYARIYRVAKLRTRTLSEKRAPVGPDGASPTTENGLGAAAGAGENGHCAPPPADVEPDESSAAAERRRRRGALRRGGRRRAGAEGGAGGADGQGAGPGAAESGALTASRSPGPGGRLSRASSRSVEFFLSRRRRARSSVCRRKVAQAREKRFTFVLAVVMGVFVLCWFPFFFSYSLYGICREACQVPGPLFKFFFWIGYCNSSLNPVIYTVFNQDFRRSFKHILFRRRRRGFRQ
Kind of assay: RSAT (Receptor Selection and Amplification Technology) assay, alpha 2C. Format: cell-based. To be noted: for RSAT (rel eff) Alpha 2C: intrinsic activity: ratio of maximal effect to that of standard full agonist brimonidine. As for the experimental part: as §1, §2, §3

Read-outs that look alike come from different tables or passages of the source. Some results are limits rather than exact numbers.

Broadly, the EC50 is the concentration that produces a half-maximal response. Take `CCC(NC1=NCCN1)c1cccc(Cl)c1Cl` (stereo not drawn) [Compound 3, N-[1-(2,3-dichloro-phenyl)-propyl]-4,5-dihydro-1H-imidazol-2-amine]: in assay [1], a half-maximal effect (EC50) was put at 38 nM and the “RSAT (rel eff) Alpha 2B” value was found to be 0.82. In assay [2], the midpoint of the response, the EC50, lay at 46 nM and the “RSAT (rel eff) Alpha 2C” value is 0.30.
Turning to `C[C@@H](NC1=NCCN1)c1cccc(Cl)c1Cl` [Compound 1, N-[1-(2,3-dichloro-phenyl)-ethyl]-4,5-dihydro-1H-imidazol-2-amine], in assay [1], the EC50 came out at 31 nM and the “RSAT (rel eff) Alpha 2B” value was 0.68. Moreover, in assay [2], a half-maximal effect (EC50) was put at 41 nM and the “RSAT (rel eff) Alpha 2C” value stood at 0.35.
On the same counts, the results for `C[C@H](NC1=NCCN1)c1cccc(Cl)c1Cl` [Compound 2, (+)-(S)—N-[1-(2,3-dichloro-phenyl)-ethyl]-4,5-dihydro-1H-imidazol-2-amine] are 19 nM, 0.63, 63 nM and 0.33.
For `Clc1cccc(C(CCc2ccccc2)NC2=NCCN2)c1Cl` (stereo not drawn) [Compound 4, N-[1-(2,3-dichloro-phenyl)-3-phenyl-propyl]-4,5-dihydro-1H-imidazol-2-amine], the EC50 in assay [1] (NIH-3T3 cells cotransfected with receptor, Gq/i5 and beta-galactosidase, read-out: RSAT EC50 (nM) Alpha 2B) was 11 nM; in assay [2] (NIH-3T3 cells cotransfected with receptor, Gq/i5 and beta-galactosidase, nd = not determinable (>10,000), read-out: RSAT EC50 (nM) Alpha 2C), > 10000 nM. In addition, in assay [1], the “RSAT (rel eff) Alpha 2B” value is recorded as 0.77.

Source of the values: patent US8486985B2, “Selective subtype alpha 2 adrenergic agents and methods for use thereof” (Allergan, Inc., priority 2008, dated 2013).
